In patent US11655246B2, “Aminothiazole compounds as inhibitors of CTPS1” (STEP PHARMA S.A.S., priority 2017, dated 2023):
“And” between values parts separate entries of the source, which are not always exact repeats. Equal entries are not always repeated.

biological target: T1, human CTPS1 (Homo sapiens, UniProt P17812); experiment: Human CTPS1 enzyme inhibition (ADP-Glo Max assay); type: biochemical; conditions: Table 17, 25° C., read-out: CTPS1 (Human CTPS1 Enzyme Inhibition data grouped by potency range)
T1 construct: purchased Proteros biostructures GmbH
T1 sequence (P17812 1-591): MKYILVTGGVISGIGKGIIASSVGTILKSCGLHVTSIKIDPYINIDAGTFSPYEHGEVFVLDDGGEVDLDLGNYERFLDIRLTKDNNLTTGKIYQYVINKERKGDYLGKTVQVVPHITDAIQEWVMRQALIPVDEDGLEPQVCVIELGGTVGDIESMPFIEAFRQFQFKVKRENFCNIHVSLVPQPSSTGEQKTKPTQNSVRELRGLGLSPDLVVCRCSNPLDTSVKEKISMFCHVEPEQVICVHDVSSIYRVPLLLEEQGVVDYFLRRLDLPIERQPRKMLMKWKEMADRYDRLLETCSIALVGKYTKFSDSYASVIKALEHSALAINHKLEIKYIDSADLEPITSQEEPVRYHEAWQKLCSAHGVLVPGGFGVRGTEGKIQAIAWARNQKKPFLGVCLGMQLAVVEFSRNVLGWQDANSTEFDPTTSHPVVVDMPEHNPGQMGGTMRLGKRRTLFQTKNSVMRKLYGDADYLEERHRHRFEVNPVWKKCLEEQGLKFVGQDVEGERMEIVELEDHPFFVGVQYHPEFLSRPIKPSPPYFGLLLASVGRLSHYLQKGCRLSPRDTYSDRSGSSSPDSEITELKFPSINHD
In short: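 ADP-Glo Max luminescence detection of ATP-to-ADP conversion by the enzyme, in 50 mM Tris, 10 mM MgCl2, 0.01% Tween-20, pH 8.0, with 2 mM L-cysteine added fresh. Enzyme preincubated with compound 10 minutes at 25° C. Percentage inhibition calculated per compound concentration.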

| SMILES | IC50 [nM] |
| --- | --- |
| COC(C(=O)Nc1ccc(-c2cncc(C(F)(F)F)n2)cn1)c1csc(NS(=O)(=O)C2CC2)n1 (stereo not shown) [T214] | < 100 |
| N#Cc1cncc(-c2ccc(NC(=O)C3CCc4sc(NS(=O)(=O)C5CC5)nc43)cc2)c1 (stereo not shown) [T217] | < 100 |
| COC(C(=O)Nc1ccc(-c2cccnc2)cc1)c1csc(NS(=O)(=O)C2CC2)n1 (stereo not shown) [T219] | < 100 |
| COC(C(=O)Nc1ccc(-c2cccnc2)cc1F)c1csc(NS(=O)(=O)C2CC2)n1 (stereo not shown) [T220] | < 100 |
| CC(C)(C(=O)Nc1ccc(-c2cnccn2)cc1F)c1csc(NS(=O)(=O)C2CC2)n1 [T274] | < 100 |
| CCC(C(=O)N(C)c1ccc(-c2cccnc2)cc1)c1csc(NS(=O)(=O)C2CC2)n1 (stereo not shown) [T315] | 100 to 1000 |
| CCOc1cncc(-c2ccc(NC(=O)C(C)(C)c3nc(NS(=O)(=O)C4CC4)sc3C)cc2)n1 [T317] | 100 to 1000 |

Results, then the molecule that gave them:

| IC50 [nM] | SMILES |
| --- | --- |
| 100 to 1000 | O=C(Nc1ccc(-c2cncc(F)c2)cc1)C1CCc2sc(NS(=O)(=O)C3CC3)nc21 (stereo not shown) [T218] |
| < 100 | CCC(C(=O)Nc1ccc(-c2cccnc2)cc1Cl)c1csc(NS(=O)(=O)C2CC2)n1 (stereo not shown) [T221] |
| 100 to 1000 | Cc1ncc(-c2ccc(NC(=O)C(C)(C)c3csc(NS(=O)(=O)C4CC4)n3)cc2)nc1Cl [T277] |
| < 100 | CCC(C(=O)Nc1ccc(-c2cncc(C3CC3)n2)cc1)c1csc(NS(=O)(=O)C2CC2)n1 (stereo not shown) [T291] |
| 100 to 1000 | Cc1sc(NS(=O)(=O)C2CC2)nc1C(C)(C)C(=O)Nc1ccc(-c2cncc(Cl)c2)cc1 [T314] |
| 100 to 1000 | CCC(C(=O)N(C)c1ccc(-c2cncc(C#N)c2)cc1)c1csc(NS(=O)(=O)C2CC2)n1 (stereo not shown) [T316] |

same assay, conditions: Table 18, additional potency data, 25° C., read-out: CTPS1 (Human CTPS1 Enzyme Inhibition data grouped by potency range)

| SMILES | IC50 |
| --- | --- |
| CCOc1cncc(-c2ccc(NC(=O)C(NC(C)=O)c3csc(NS(=O)(=O)C4CC4)n3)cc2)n1 (stereo not shown) [T326, 2-acetamido-2-(2-(cyclopropanesulfonamido)thiazol-4-yl)-N-(4-(6-ethoxypyrazin-2-yl)phenyl)acetamide] | < 100 nM |
| CCOc1cncc(-c2ccc(NC(=O)C(NC(=O)OC)c3csc(NS(=O)(=O)C4CC4)n3)cc2)n1 (stereo not shown) [T327, methyl (1-(2-(cyclopropanesulfonamido)thiazol-4-yl)-2-((4-(6-ethoxypyrazin-2-yl)phenyl)amino)-2-oxoethyl)carbamate] | < 100 nM |
| CCOc1cncc(-c2ccc(NC(=O)C(c3csc(NS(=O)(=O)C4CC4)n3)N(C)C)cc2)n1 (stereo not shown) [T328, 2-(2-(cyclopropanesulfonamido)thiazol-4-yl)-2-(dimethylamino)-N-(4-(6-ethoxypyrazin-2-yl)phenyl)acetamide] | < 100 nM |
| COCCS(=O)(=O)Nc1nc(C(C)(C)C(=O)Nc2ccc(-c3cncc(C(F)(F)F)n3)cn2)cs1 [T332, 2-(2-((2-methoxyethyl)sulfonamido)thiazol-4-yl)-2-methyl-N-(5-(6-(trifluoromethyl)pyrazin-2-yl)pyridin-2-yl)propanamide] | 100 to 1000 nM |
| CC(C)(C(=O)Nc1ccc(-c2cncc(C(F)(F)F)n2)cc1)c1csc(NS(=O)(=O)C2CCCC2)n1 [T334, 2-(2-(cyclopentanesulfonamido)thiazol-4-yl)-2-methyl-N-(4-(6-(trifluoromethyl)pyrazin-2-yl)phenyl)propanamide] | 100 to 1000 nM |
| CCOc1cncc(-c2ccc(NC(=O)C(C)(C)c3csc(NS(=O)(=O)C4CCCC4)n3)cc2)n1 [T335, 2-(2-(cyclopentanesulfonamido)thiazol-4-yl)-N-(4-(6-ethoxypyrazin-2-yl)phenyl)-2-methylpropanamide] | 100 to 1000 nM |
| COC(C)(C)c1cncc(-c2ccc(NC(=O)C(C)(C)c3csc(NS(=O)(=O)C4CC4)n3)nc2)n1 [T339, 2-(2-(cyclopropanesulfonamido)thiazol-4-yl)-N-(5-(6-(2-methoxypropan-2-yl)pyrazin-2-yl)pyridin-2-yl)-2-methylpropanamide] | 1000 to 10000 nM |
| Cc1sc(NS(=O)(=O)C2CC2)nc1C(C)(C)C(=O)Nc1ccc(-c2cncc(C(F)(F)F)n2)cn1 [T340, 2-(2-(cyclopropanesulfonamido)-5-methylthiazol-4-yl)-2-methyl-N-(5-(6-(trifluoromethyl)pyrazin-2-yl)pyridin-2-yl)propanamide] | 100 to 1000 nM |
| CCOc1cncc(-c2ccc(NC(=O)C(C)(C)c3csc(NS(=O)(=O)C4CC4)n3)nc2)n1 [T341, 2-(2-(cyclopropanesulfonamido)thiazol-4-yl)-N-(5-(6-ethoxypyrazin-2-yl)pyridin-2-yl)-2-methylpropanamide] | < 100 nM |
| CCOc1cncc(-c2ccc(NC(=O)C(C)(C)c3nc(NS(=O)(=O)C4CC4)sc3C)nc2)n1 [T342, 2-(2-(cyclopropanesulfonamido)-5-methylthiazol-4-yl)-N-(5-(6-ethoxypyrazin-2-yl)pyridin-2-yl)-2-methylpropanamide] | < 100 nM |
| CC(C)(C(=O)Nc1ccc(-c2cncc(F)c2)cc1C(F)(F)F)c1csc(NS(=O)(=O)C2CC2)n1 [T345, 2-(2-(cyclopropanesulfonamido)thiazol-4-yl)-N-(4-(5-fluoropyridin-3-yl)-2-(trifluoromethyl)phenyl)-2-methylpropanamide] | < 100 nM |
| CC(C)(C(=O)Nc1ccc(-c2cncc(C(F)(F)F)n2)cc1C(F)(F)F)c1csc(NS(=O)(=O)C2CC2)n1 [T346, 2-(2-(cyclopropanesulfonamido)thiazol-4-yl)-2-methyl-N-(2-(trifluoromethyl)-4-(6-(trifluoromethyl)pyrazin-2-yl)phenyl)propanamide] | 100 to 1000 nM |
| CCc1cc(-c2cncc(C#N)c2)cc(CC)c1NC(=O)C(C)(C)c1csc(NS(=O)(=O)C2CC2)n1 [T349, N-(4-(5-cyanopyridin-3-yl)-2,6-diethylphenyl)-2-(2-(cyclopropanesulfonamido)thiazol-4-yl)-2-methylpropanamide] | 100 to 1000 nM |

Continued, values first:

| IC50 | SMILES |
| --- | --- |
| < 100 nM | CCOc1cncc(-c2ccc(NC(=O)C(CCO)c3csc(NS(=O)(=O)C4CC4)n3)cc2)n1 (stereo not shown) [T329, 2-(2-(cyclopropanesulfonamido)thiazol-4-yl)-N-(4-(6-ethoxypyrazin-2-yl)phenyl)-4-hydroxybutanamide] |
| 1000 to 10000 nM | CC(C)(C(=O)Nc1ccc(-c2cccnc2)cc1)c1csc(NS(=O)(=O)C2CCCC2)n1 [T333, 2-(2-(cyclopentanesulfonamido)thiazol-4-yl)-2-methyl-N-(4-(pyridin-3-yl)phenyl)propanamide] |
| 100 to 1000 nM | CC(C)c1cncc(-c2ccc(NC(=O)C(C)(C)c3csc(NS(=O)(=O)C4CC4)n3)nc2)n1 [T336, 2-(2-(cyclopropanesulfonamido)thiazol-4-yl)-N-(5-(6-isopropylpyrazin-2-yl)pyridin-2-yl)-2-methylpropanamide] |
| < 100 nM | CCOc1cncc(-c2ccc(NC(=O)C(C)(C)c3csc(NS(=O)(=O)C4CC4)n3)nc2)c1 [T337, 2-(2-(cyclopropanesulfonamido)thiazol-4-yl)-N-(5′-ethoxy-[3,3′-bipyridin]-6-yl)-2-methylpropanamide] |
| 1000 to 10000 nM | CC(C)(O)c1cncc(-c2ccc(NC(=O)C(C)(C)c3csc(NS(=O)(=O)C4CC4)n3)nc2)n1 [T338, 2-(2-(cyclopropanesulfonamido)thiazol-4-yl)-N-(5-(6-(2-hydroxypropan-2-yl)pyrazin-2-yl)pyridin-2-yl)-2-methylpropanamide] |
| < 100 nM | CC(C)(C(=O)Nc1ccc(-c2cncc(Cl)c2)cc1C(F)(F)F)c1csc(NS(=O)(=O)C2CC2)n1 [T343, N-(4-(5-chloropyridin-3-yl)-2-(trifluoromethyl)phenyl)-2-(2-(cyclopropanesulfonamido)thiazol-4-yl)-2-methylpropanamide] |
| < 100 nM | CC(C)(C(=O)Nc1ccc(-c2cncc(C#N)c2)cc1C(F)(F)F)c1csc(NS(=O)(=O)C2CC2)n1 [T344, N-(4-(5-cyanopyridin-3-yl)-2-(trifluoromethyl)phenyl)-2-(2-(cyclopropanesulfonamido)thiazol-4-yl)-2-methylpropanamide] |
| < 100 nM | CCOc1cncc(-c2ccc(NC(=O)C(C)(C)c3csc(NS(=O)(=O)C4CC4)n3)c(C(F)(F)F)c2)n1 [T347, 2-(2-(cyclopropanesulfonamido)thiazol-4-yl)-N-(4-(6-ethoxypyrazin-2-yl)-2-(trifluoromethyl)phenyl)-2-methylpropanamide] |
| 100 to 1000 nM | CCc1cc(-c2cncc(Cl)c2)cc(CC)c1NC(=O)C(C)(C)c1csc(NS(=O)(=O)C2CC2)n1 [T348, N-(4-(5-chloropyridin-3-yl)-2,6-diethylphenyl)-2-(2-(cyclopropanesulfonamido)thiazol-4-yl)-2-methylpropanamide] |
| 100 to 1000 nM | Cc1sc(NS(=O)(=O)C2CC2)nc1C(C)(C)C(=O)Nc1ccc(-c2cncc(C(F)(F)F)c2)cc1F [T350, 2-(2-(cyclopropanesulfonamido)-5-methylthiazol-4-yl)-N-(2-fluoro-4-(5-(trifluoromethyl)pyridin-3-yl)phenyl)-2-methylpropanamide] |
| 100 to 1000 nM and < 100 nM | CC(C)(C(=O)Nc1c(F)cc(-c2cncc(Cl)c2)cc1F)c1csc(NS(=O)(=O)C2CC2)n1 [T351, N-(4-(5-chloropyridin-3-yl)-2,6-difluorophenyl)-2-(2-(cyclopropanesulfonamido)thiazol-4-yl)-2-methylpropanamide] |
